Laboratory results reported in patent US7723329B2, “Substituted-3-sulfonylindazole derivatives as 5-hydroxytryptamine-6 ligands” (Wyeth LLC, priority 2005, dated 2010).
pKi: −log10 of the molar value.

These compounds were tested against T1, human cloned 5-HT6 receptors (Homo sapiens, UniProt P50406) (assay: 5-HT6 binding affinity, [3H]-LSD displacement). Details: membranes of Hela cells expressing human cloned 5-HT6 receptors; [3H]-LSD 3.0 nM; 120 minutes at room temperature.
T1 construct: expressed in transfected cells; host or cells: HeLa cells
Method: The affinity of test compounds for the serotonin 5-HT6 receptor was evaluated in the following manner. Cultured Hela cells expressing human cloned 5-HT6 receptors were harvested and centrifuged at low speed (1,000×g) for 10.0 minutes to remove the culture media. The harvested cells were suspended in half volume of fresh physiological phosphate buffered saline solution and recentrifuged at the same speed. This operation was repeated. The collected cells were then homogenized in ten volumes of 50 mM Tris.HCl (pH 7.4) and 0.5 mM EDTA. The homogenate was centrifuged at 40,000×g for 30.0 min and the precipitate was collected. The obtained pellet was resuspended in 10 volumes of Tris.HCl buffer and recentrifuged at the same speed. The final pellet was suspended in a small volume of Tris.HCl buffer and the tissue protein content was determined in aliquots of 10-25 μl volumes. […] The volume of the suspended cell membranes was adjusted to give a tissue protein concentration of 1.0 mg/ml of suspension. The prepared membrane suspension (10 times concentrated) was aliquoted in 1.0 ml volumes and stored at −70° C. until used in subsequent binding experiments.
The bound complex caught on the filter disk was allowed to air dry and the radioactivity is measured in a Packard TopCount® equipped with six photomultiplier detectors, after the addition of 40.0 μl Microscint®-20 scintillant to each shallow well. The unifilter plate was heat-sealed and counted in a PackardTopCount® with a tritium efficiency of 31.0%.
Specific binding to the 5-HT6 receptor was defined as the total radioactivity bound less the amount bound in the presence of 10.0 μM unlabeled methiothepin. Binding in the presence of varying concentrations of test compound was expressed as a percentage of specific binding in the absence of test compound. The results were plotted as log % bound versus log concentration of test compound. […] A linear regression line of data points was plotted, from which the IC50 value is determined and the Ki value is determined based upon the following equation: Ki=IC50/(1+L/KD) where L was the concentration of the radioactive ligand used and KD is the dissociation constant of the ligand for the receptor, both expressed in nM.

T1 sequence (P50406 whole entry): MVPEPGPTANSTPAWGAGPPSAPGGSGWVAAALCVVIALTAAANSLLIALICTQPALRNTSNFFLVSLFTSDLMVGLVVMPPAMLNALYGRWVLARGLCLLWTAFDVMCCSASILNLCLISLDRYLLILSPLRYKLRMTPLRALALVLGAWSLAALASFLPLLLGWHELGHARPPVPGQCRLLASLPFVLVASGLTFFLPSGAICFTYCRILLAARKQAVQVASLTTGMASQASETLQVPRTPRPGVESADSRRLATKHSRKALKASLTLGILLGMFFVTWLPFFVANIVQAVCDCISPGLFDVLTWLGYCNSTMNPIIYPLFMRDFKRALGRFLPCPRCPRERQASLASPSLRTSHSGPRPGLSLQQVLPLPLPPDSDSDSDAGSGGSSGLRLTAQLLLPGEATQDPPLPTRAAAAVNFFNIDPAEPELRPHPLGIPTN

Row | Structure (SMILES) | pKi
1 | CCN(C)CCOc1ccc2c(c1)c(S(=O)(=O)c1cccc3ccccc13)nn2C [Example 42, Ethyl-methyl-{2-[1-methyl-3-(naphthalene-1-sulfonyl)-1H-indazol-5-yloxy]-ethyl}-amine] | 8.00 to 11.00
2 | CCN(CC)CCOc1ccc2c(c1)c(S(=O)(=O)c1cccc3ccccc13)nn2C [Example 43, Diethyl-{2-[1-methyl-3-(naphthalene-1-sulfonyl)-1H-indazol-5-yloxy]-ethyl}-amine] | 8.00 to 11.00
3 | CCNCCOc1ccc2c(c1)c(S(=O)(=O)c1cccc3ccccc13)nn2C [Example 44, Ethyl-{2-[1-methyl-3-(naphthalene-1-sulfonyl)-1H-indazol-5-yloxy]-ethyl}-amine] | 8.00 to 11.00
4 | Cn1nc(S(=O)(=O)c2cccc3ccccc23)c2cc(OCCN3CCCC3)ccc21 [Example 46, 1-Methyl-3-(naphthalene-1-sulfonyl)-5-(2-pyrrolidin-1-yl-ethoxy)-1H-indazole] | 8.00 to 11.00
5 | CC(C)NCCOc1ccc2c(c1)c(S(=O)(=O)c1cccc3ccccc13)nn2Cc1ccccc1 [Example 49, {2-[1-Benzyl-3-(naphthalene-1-sulfonyl)-1H-indazol-5-yloxy]-ethyl}-isopropyl-amine] | 7.46 to 7.59
6 | CN(C)CCOc1ccc2c(c1)c(S(=O)(=O)c1cccc3ccccc13)nn2Cc1ccccc1 [Example 51, {2-[1-Benzyl-3-(naphthalene-1-sulfonyl)-1H-indazol-5-yloxy]-ethyl}-dimethyl-amine] | 7.60 to 7.96
7 | CN(C)CCOc1ccc2c(c1)c(S(=O)(=O)c1cccc3ccccc13)nn2Cc1cccc(Cl)c1 [Example 54, {2-[1-(3-Chloro-benzyl)-3-(naphthalene-1-sulfonyl)-1H-indazol-5-yloxy]-ethyl}-dimethyl-amine] | 7.60 to 7.96
8 | O=S(=O)(c1cccc2ccccc12)c1n[nH]c2ccc(OCCCCN3CCCCC3)cc12 [Example 61, 3-(1-naphthylsulfonyl)-5-(4-piperidin-1-ylbutoxy)-1H-indazole] | 8.00 to 11.00
9 | CN(C)CCCCOc1ccc2[nH]nc(S(=O)(=O)c3cccc4ccccc34)c2c1 [Example 64] | 8.00 to 11.00
10 | CCCN(C)CCCCOc1ccc2[nH]nc(S(=O)(=O)c3cccc4ccccc34)c2c1 [Example 65] | 8.00 to 11.00
11 | O=S(=O)(c1cccc2ccccc12)c1n[nH]c2ccc(OCCCCN3CCCC3)cc12 [Example 67] | 8.00 to 11.00
12 | NCCCCOc1ccc2[nH]nc(S(=O)(=O)c3cccc4ccccc34)c2c1 [Example 68, (4-{[3-(1-naphthylsulfonyl)-1H-indazol-5-yl]oxy}butyl)amine] | 8.00 to 11.00
13 | NCCOc1cccc2c(S(=O)(=O)c3cccc4ccccc34)nn(Cc3cccc(Cl)c3)c12 [Example 69, (2-{[1-(3-Chlorobenzyl)-3-(1-naphthylsulfonyl)-1-H-indazol-7-yl]oxy}ethyl) amine] | 7.46 to 7.59
14 | CNCCOc1cccc2c(S(=O)(=O)c3cccc4ccccc34)n[nH]c12 [Example 77] | 8.00 to 11.00
15 | CCNCCOc1cccc2c(S(=O)(=O)c3cccc4ccccc34)n[nH]c12 [Example 79] | 7.60 to 7.96
16 | O=S(=O)(c1cccc2ccccc12)c1n[nH]c2c(OCCN3CCCC3)cccc12 [Example 81] | 8.00 to 11.00
17 | CNCCOc1cccc2c(S(=O)(=O)c3ccccc3)nn(Cc3cccc(Cl)c3)c12 [Example 82] | 7.60 to 7.96
18 | O=S(=O)(c1ccccc1)c1nn(Cc2cccc(Cl)c2)c2c(OCCN3CCCCC3)cccc12 [Example 87] | < 7.35
19 | CNCCOc1cccc2c(S(=O)(=O)c3ccccc3)n[nH]c12 [Example 88] | 8.00 to 11.00
20 | CCN(CC)CCOc1cccc2c(S(=O)(=O)c3ccccc3)n[nH]c12 [Example 90] | 8.00 to 11.00
21 | O=S(=O)(c1ccccc1)c1n[nH]c2c(OCCN3CCCC3)cccc12 [Example 92] | 8.00 to 11.00
22 | CCNCCOc1cccc2c(S(=O)(=O)c3cccc4ccccc34)nn(C)c12 [Example 95] | 8.00 to 11.00

Now from value to compound:

Row | pKi | Structure (SMILES)
23 | 8.00 to 11.00 | CC(C)NCCOc1ccc2c(c1)c(S(=O)(=O)c1cccc3ccccc13)nn2C [Example 45, Isopropyl-{2-[1-methyl-3-(naphthalene-1-sulfonyl)-1H-indazol-5-yloxy]-ethyl}-amine]
24 | 7.46 to 7.59 | CCN(C)CCOc1ccc2c(c1)c(S(=O)(=O)c1cccc3ccccc13)nn2Cc1ccccc1 [Example 47, {2-[1-Benzyl-3-(naphthalene-1-sulfonyl)-1H-indazol-5-yloxy]-ethyl}-ethyl-methyl-amine]
25 | 7.46 to 7.59 | CNCCOc1ccc2c(c1)c(S(=O)(=O)c1cccc3ccccc13)nn2Cc1ccccc1 [Example 48, {2-[1-Benzyl-3-(naphthalene-1-sulfonyl)-1H-indazol-5-yloxy]-ethyl}-methyl-amine]
26 | 7.35 to 7.44 | CCN(CC)CCOc1ccc2c(c1)c(S(=O)(=O)c1cccc3ccccc13)nn2Cc1ccccc1 [Example 50, {2-[1-Benzyl-3-(naphthalene-1-sulfonyl)-1H-indazol-5-yloxy]-ethyl}-diethyl-amine]
27 | < 7.35 | O=S(=O)(c1cccc2ccccc12)c1nn(Cc2ccccc2)c2ccc(OCCN3CCCC3)cc12 [Example 52, 1-Benzyl-3-(naphthalene-1-sulfonyl)-5-(2-pyrrolidin-1-yl-ethoxy)-1H-indazole]
28 | 7.60 to 7.96 | CCNCCOc1ccc2c(c1)c(S(=O)(=O)c1cccc3ccccc13)nn2Cc1ccccc1 [Example 53, {2-[1-Benzyl-3-(naphthalene-1-sulfonyl)-1H-indazol-5-yloxy]-ethyl}-ethyl-amine]
29 | < 7.35 | CCN(C)CCOc1ccc2c(c1)c(S(=O)(=O)c1cccc3ccccc13)nn2Cc1cccc(Cl)c1 [Example 55, {2-[1-(3-Chloro-benzyl)-3-(naphthalene-1-sulfonyl)-1H-indazol-5-yloxy]-ethyl}-ethyl-methyl-amine]
30 | < 7.35 | CCN(CC)CCOc1ccc2c(c1)c(S(=O)(=O)c1cccc3ccccc13)nn2Cc1cccc(Cl)c1 [Example 56, {2-[1-(3-Chloro-benzyl)-3-(naphthalene-1-sulfonyl)-1H-indazol-5-yloxy]-ethyl}-diethyl-amine]
31 | 7.35 to 7.44 | CC(C)NCCOc1ccc2c(c1)c(S(=O)(=O)c1cccc3ccccc13)nn2Cc1cccc(Cl)c1 [Example 57, {2-[1-(3-Chloro-benzyl)-3-(naphthalene-1-sulfonyl)-1H-indazol-5-yloxy]-ethyl}-isopropyl-amine]
32 | 7.46 to 7.59 | O=S(=O)(c1cccc2ccccc12)c1nn(Cc2cccc(Cl)c2)c2ccc(OCCN3CCCC3)cc12 [Example 58, 1-(3-Chloro-benzyl)-3-(naphthalene-1-sulfonyl)-5-(2-pyrrolidin-1-yl-ethoxy)-1H-indazole]
33 | < 7.35 | CNCCOc1ccc2c(c1)c(S(=O)(=O)c1cccc3ccccc13)nn2Cc1cccc(Cl)c1 [Example 59, {2-[1-(3-Chloro-benzyl)-3-(naphthalene-1-sulfonyl)-1H-indazol-5-yloxy]-ethyl}-methyl-amine]
34 | 7.60 to 7.96 | CCNCCOc1ccc2c(c1)c(S(=O)(=O)c1cccc3ccccc13)nn2Cc1cccc(Cl)c1 [Example 60, {2-[1-(3-Chloro-benzyl)-3-(naphthalene-1-sulfonyl)-1H-indazol-5-yloxy]-ethyl}-ethyl-amine]
35 | 8.00 to 11.00 | CCNCCCCOc1ccc2[nH]nc(S(=O)(=O)c3cccc4ccccc34)c2c1 [Example 63]
36 | 8.00 to 11.00 | CCN(CC)CCCCOc1ccc2[nH]nc(S(=O)(=O)c3cccc4ccccc34)c2c1 [Example 66]
37 | 7.60 to 7.96 | CNCCOc1cccc2c(S(=O)(=O)c3cccc4ccccc34)nn(Cc3cccc(Cl)c3)c12 [Example 70, (2-{[1-(3-Chlorobenzyl)-3-(1-naphthylsulfonyl)-1-H-indazol-7-yl]oxy}ethyl) methylamine]
38 | 8.00 to 11.00 | NCCOc1cccc2c(S(=O)(=O)c3cccc4ccccc34)n[nH]c12 [Example 76, (2-{[3-(1-naphthylsulfonyl)-1-H-indazol-7-yl]oxy}ethyl)amine]
39 | 8.00 to 11.00 | CN(C)CCOc1cccc2c(S(=O)(=O)c3cccc4ccccc34)n[nH]c12 [Example 78]
40 | 8.00 to 11.00 | O=S(=O)(c1cccc2ccccc12)c1n[nH]c2c(OCCN3CCCCC3)cccc12 [Example 80]
41 | 7.46 to 7.59 | CCNCCOc1cccc2c(S(=O)(=O)c3ccccc3)nn(Cc3cccc(Cl)c3)c12 [Example 83]
42 | < 7.35 | CCN(CC)CCOc1cccc2c(S(=O)(=O)c3ccccc3)nn(Cc3cccc(Cl)c3)c12 [Example 84]
43 | < 7.35 | CCCCNCCOc1cccc2c(S(=O)(=O)c3ccccc3)nn(Cc3cccc(Cl)c3)c12 [Example 85]
44 | 7.46 to 7.59 | O=S(=O)(c1ccccc1)c1nn(Cc2cccc(Cl)c2)c2c(OCCN3CCCC3)cccc12 [Example 86]
45 | 8.00 to 11.00 | CCNCCOc1cccc2c(S(=O)(=O)c3ccccc3)n[nH]c12 [Example 89]
46 | 8.00 to 11.00 | CCCCNCCOc1cccc2c(S(=O)(=O)c3ccccc3)n[nH]c12 [Example 91]
47 | 8.00 to 11.00 | O=S(=O)(c1ccccc1)c1n[nH]c2c(OCCN3CCCCC3)cccc12 [Example 93]
